Reference: patent publication US10947284B2, “Fusion molecules” (Pieris Pharmaceuticals GMBH, priority 2015, dated 2021)

Legend:
[1] = target: hNGAL (human lipocalin 2), wild type, SEQ ID NO: 1 (Homo sapiens, UniProt P80188); assay: Surface plasmon resonance (Biacore T200); type: binding; details: positive control
Source text: In a surface plasmon resonance (SPR) based assay, a Biacore T200 instrument (GE Healthcare) was used to measure the binding affinity of individual muteins or fusion molecules to pyoverdine siderophores (to pyoverdine I succinyl, -succinamide, -α-ketoglutaryl with complexed iron ion or to pyoverdine II succinyl, -succinamide, -α-ketoglutaryl with complexed iron ion or to pyoverdine III succinyl, -succinamide, -α-ketoglutaryl with complexed iron ion). To this end, muteins selected for binding to pyoverdines (SEQ ID NOs: 16, 36, 53), a fusion molecule (SEQ ID NO: 134) and a negative control (SEQ ID NO: 64) were biotinylated for 2 h at room temperature applying an appropriate excess of EZ-Link NHS-PEG4-Biotin (Thermo, Cat #21329) followed by separation of non-reacted biotin using a Zebra Spin Desalting Plate (Thermo, […]) according to the manufacturer's instructions.
In the SPR affinity assay, biotinylated muteins and negative control were captured on a sensor chip CAP using the Biotin CAPture Kit (GE Healthcare), wherein the Sensor Chip CAP is pre-immobilized with an ssDNA oligo. […] After ligand immobilization, the four concentrations of Pvd were applied consecutively in ascending order before the dissociation was monitored. […] Data were evaluated with Biacore T200 Evaluation software (V 1.0). […]

[2] = target: T1, hNGAL (human lipocalin 2, parent wild type SEQ ID NO: 1) mutein SEQ ID NO: 62 (Homo sapiens, UniProt P80188, A60Q/C107S/D65G/D97L/I61W/K145F/K154F/K66R/K93I/L123G/L56H/L90D/N85D/Q69R/R101T/R92A/S147I/S88D/W99R/Y120H/Y126G/Y152A/Y72W); assay: Surface plasmon resonance (Biacore T200), CM5 chip; type: binding; details: SPR, high concentrations (≥1 μM)
T1 construct: made in house
Procedure: (§1) Subsequently, 5 μg/mL of mutein or the negative control solution in 10 mM acetate pH 4.0 was applied at a flow rate of 10 μl/min until a high immobilization level of approximately 2000 RU was achieved. Residual activated groups were quenched with ethanolamine. The reference channels were treated with EDC/NHS following ethanolamine (blank immobilization).
The binding assay was carried out with a contact time of 180 s, dissociation times of 1200-1800 s and applying a flow rate of 30 μl/min. Measurements were performed at 25° C. Regeneration of the immobilized mutein surface was achieved by three consecutive injections of 10 mM Gly-HCl pH 1.5 (120 s) followed by an extra wash with running buffer and a stabilization period. Data were evaluated with Biacore T200 Evaluation software (V 1.0). Double referencing was used. The 1:1 Binding model was used to fit the raw data.
Subsequently, 5 μg/mL of mutein or the negative control solution in 10 mM acetate pH 4.0 was applied at a flow rate of 10 μl/min until a high immobilization level of approximately 2000 RU was achieved. Residual activated groups were quenched with ethanolamine. The reference channels were treated with EDC/NHS following ethanolamine (blank immobilization). […] The binding assay was carried out with a contact time of 180 s, dissociation times of 1500-1800 s and applying a flow rate of 30 μl/min. Measurements were performed at 25° C. Regeneration of the immobilized mutein surface was achieved by three consecutive injections of 10 mM Gly-HCl pH 1.5 (120 s) followed by an extra wash with running buffer and a stabilization period. Data were evaluated with Biacore T200 Evaluation software (V 1.0). Double referencing was used. The 1:1 Binding model was used to fit the raw data.

[3] = target: lipocalin negative control SEQ ID NO: 64 (Homo sapiens, UniProt P80188, C107S/Q48H); assay: Surface plasmon resonance (Biacore T200); type: binding; details: Biacore, Example 18
Procedure: In a Surface Plasmon Resonance (SPR) based assay a Biacore T200 instrument (GE Healthcare) was used to measure the binding affinity of muteins to pyoverdine I succinyl, -succinamide, -α-ketoglutaryl with complexed iron ion or to pyoverdine II succinyl, -succinamide, -α-ketoglutaryl with complexed iron ion or to pyoverdine III succinyl, -succinamide, -α-ketoglutaryl with complexed iron ion. Muteins selected for binding to pyoverdines and negative control (SEQ ID NO: 64) were biotinylated for 2 h at room temperature applying an appropriate excess of EZ-Link NHS-PEG4-Biotin (Thermo, Cat #21329) followed by separation of non-reacted Biotin using a Zebra Spin Desalting Plate (Thermo, Cat #21329) according to the manufactures instructions.
In the SPR affinity assay, biotinylated muteins and negative control were captured on a sensor chip CAP using the Biotin CAPture Kit (GE Healthcare): Sensor Chip CAP is pre-immobilized with an ssDNA oligo. Undiluted Biotin CAPture Reagent (streptavidin conjugated with the complementary ss-DNA oligo) was applied at a flow rate of 2 μl/min for 300 s. Subsequently, 1 μg/ml to 100 μg/mL of biotinylated muteins or negative control were applied for 300 s at a flow rate of 5 μl/min. The reference channel was loaded with Biotin CAPture Reagent only.
Applying a flow rate of 30 μl/min, a single cycle or multi cycle kinetics approach was used with a sample contact time of 120-180 s and a dissociation time of 900-2400 s. […] After ligand immobilization, for analysis using single cycle kinetics all 4-5 concentrations of Pvd were applied consecutively in ascending order before the dissociation was monitored. For analysis using multi cycle kinetics 4 dilutions of Pvd were applied, each followed a dissociation phase. All measurements were performed at 25° C. […] Data were evaluated with Biacore T200 Evaluation software (V 1.0). Double referencing was used. A 1:1 Binding model was used to fit the raw data.
as §1
In the SPR affinity assay, biotinylated muteins and negative control were captured on a sensor chip CAP using the Biotin CAPture Kit (GE Healthcare), wherein the Sensor Chip CAP is pre-immobilized with an ssDNA oligo. Undiluted Biotin CAPture Reagent (streptavidin conjugated with the complementary ss-DNA oligo) was applied at a flow rate of 2 μl/min for 300 s. Subsequently, 20 μg/ml to 100 μg/mL of biotinylated muteins or fusion molecule negative control were applied for 300 s at a flow rate of 5 μl/min. The reference channel was loaded with Biotin CAPture Reagent only. To determine the binding affinity, four dilutions of the respective Pvd were prepared in HBS-EP+ buffer (GE Healthcare) and applied to the chip surface. Applying a flow rate of 30 μl/min, a single cycle kinetics approach was used with a sample contact time of 180 s and a dissociation time of 1800-2400 s. […] After ligand immobilization, the four concentrations of Pvd were applied consecutively in ascending order before the dissociation was monitored. All measurements were performed at 25° C. […] Data were evaluated with Biacore T200 Evaluation software (V 1.0). Double referencing was preformed. A 1:1 binding model was used to fit the raw data.

[4] = target: T2, Fusion molecule SEQ ID NO: 134 (hNGAL muteins SEQ ID NOs: 36, 16, 53 and 62) (Homo sapiens, UniProt P80188, A60T/C107S/D97H, form not given/K145I/K154W/K93R/L123T/L56V/L90R/N85D/Q69G/R101D/R92I/S147R/S88D/T74A/W99Y/Y126Q/Y152I/Y72N); assay: Surface plasmon resonance (Biacore T200); type: binding
T2 construct: made in house; host or cells: HEK293

P. aeruginosa PA01 = assay: Chronic lung infection model in rats; type: in vivo, Sprague Dawley rats; details: 20 mg/kg/dose, IV BD, treatment from day 3 post infection
Procedure: P. aeruginosa, PA01, was recovered from long-term storage at −80° C. by sub-culturing onto fresh blood agar plates and incubating at 37° C. overnight. The inoculum was prepared by picking 5-10 distinct colonies from the culture plates followed by suspension in 10 mL of Muller-Hinton broth. The culture was incubated for 18 hours on an orbital shaker at 300 rpm and 37° C. The culture was washed twice in PBS, then the pellet was resuspended in PBS and adjusted to an optical density of 0.669 at 600 nm (approximately 1.2×10^9 CFU/mL). This was further diluted to give an inoculum concentration of 6×10^7 CFU/mL. 1 mL of this inoculum was added to 30 mL of bacteriological agar, used to prepare the agarose beads (Cash H. A. et al., 1979). The final concentration of PA01 in the agarose beads was 2×10^6 CFU/mL (1×10^5 CFU per 50 μL inoculum).
Sprague Dawley rats used in this study were supplied by Charles River Laboratories UK. Rats were 200-225 g at the time of delivery and were specific pathogen free. Following arrival, rats were allowed at least 7 days acclimatization before the study was started. Rats were 250-300 g at the start of the study. Rats were group housed in sterile individually ventilated cages exposing the animals at all times to HEPA filtered sterile air. Rats had free access to food and water (sterile) and had sterile aspen chip bedding (changed every 3-4 days or as appropriate). […]

T2 sequence (P80188 with tags, fused parts or gaps with the stated changes, form open): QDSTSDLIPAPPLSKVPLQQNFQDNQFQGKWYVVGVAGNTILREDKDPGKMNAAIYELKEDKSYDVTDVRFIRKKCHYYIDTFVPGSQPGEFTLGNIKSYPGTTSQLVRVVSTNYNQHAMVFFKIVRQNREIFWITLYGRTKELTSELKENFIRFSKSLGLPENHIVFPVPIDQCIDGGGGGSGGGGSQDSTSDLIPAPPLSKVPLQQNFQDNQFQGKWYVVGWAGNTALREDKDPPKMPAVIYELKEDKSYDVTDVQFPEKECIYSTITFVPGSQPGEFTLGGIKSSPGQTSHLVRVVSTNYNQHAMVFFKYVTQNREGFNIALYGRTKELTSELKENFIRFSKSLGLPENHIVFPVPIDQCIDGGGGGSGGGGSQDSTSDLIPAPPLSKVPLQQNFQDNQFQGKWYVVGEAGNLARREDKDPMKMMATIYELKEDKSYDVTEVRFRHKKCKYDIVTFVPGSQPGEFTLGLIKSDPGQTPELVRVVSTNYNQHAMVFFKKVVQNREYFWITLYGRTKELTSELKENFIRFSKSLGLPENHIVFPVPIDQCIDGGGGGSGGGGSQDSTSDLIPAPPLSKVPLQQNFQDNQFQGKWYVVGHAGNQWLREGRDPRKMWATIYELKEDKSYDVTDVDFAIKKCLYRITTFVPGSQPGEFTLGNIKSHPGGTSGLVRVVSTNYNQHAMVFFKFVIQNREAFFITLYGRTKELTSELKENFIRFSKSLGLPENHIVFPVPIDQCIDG
Chain of lipocalin negative control SEQ ID NO: 64 (P80188 21-198 Q48H/C107S): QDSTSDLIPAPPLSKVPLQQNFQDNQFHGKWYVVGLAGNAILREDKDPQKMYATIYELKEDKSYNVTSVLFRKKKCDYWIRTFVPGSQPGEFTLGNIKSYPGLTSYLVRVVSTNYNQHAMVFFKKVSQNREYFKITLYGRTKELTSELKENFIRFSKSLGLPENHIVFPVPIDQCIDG
T1 sequence (P80188 21-198 with the stated changes): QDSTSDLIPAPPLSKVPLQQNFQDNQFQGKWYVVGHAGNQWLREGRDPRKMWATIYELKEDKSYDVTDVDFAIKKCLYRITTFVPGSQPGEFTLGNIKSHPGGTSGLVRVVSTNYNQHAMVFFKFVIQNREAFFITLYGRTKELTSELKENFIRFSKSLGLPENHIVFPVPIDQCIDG
Chain of hNGAL (human lipocalin 2), wild type, SEQ ID NO: 1 (P80188 21-198): as the sequence (P80188 21-198 Q48H/C107S) above, with H28Q, S87C counted along it

With `O=C(N[C@H]1COC(=O)[C@@H](NC(=O)c2cccc(O)c2O)COC(=O)[C@@H](NC(=O)c2cccc(O)c2O)COC1=O)c1cccc(O)c1O.[Fe+3]` [Fe-Enterobactin, Fe-enterobactin] the binding [1] was “showed binding”, the binding [2] was “absence of binding” and the binding [3] was “showed binding”. The KD ([4]; Biacore, 25° C., Table 13) was “no bdg” and the binding ([4]; SPR, high concentrations (≥1 μM)) was “absence of binding”.
In the case of `NC[C@H]1O[C@H](O[C@H]2[C@H](O)[C@@H](O[C@H]3O[C@H](CO)[C@@H](O)[C@H](N)[C@H]3O)[C@H](N)C[C@@H]2N)[C@H](N)C[C@@H]1O` [Tobramycin], the “clearance of lung infection” value (P. aeruginosa PA01) is reported as “cleared the infection starting from day 5 post-infection”.
